Laboratory results reported in patent publication US6737383B1, “Herbicidal oxadiazolidines” (priority 1999, dated 2004).

Tests used:
Green foxtail = assay: Test D green foxtail; type: in vivo; details: Rate 500 g/ha; Preemergence; 0 to 100 scale
How it was run: (§1)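 Visual injury ratings, 0 = no injury to 100 = complete control, taken 14 to 21 days after treatment. Test chemicals were in a surfactant-containing non-phytotoxic solvent; preemergence treatments went onto the sandy loam surface of seeded greenhouse pots within one day of sowing.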

sourgrass = assay: Test D sourgrass; type: in vivo, Trichachne insularis; details: Preemergence, 0 to 100 scale
How it was run: as §1

How did the “Plant response rating, Green foxtail” value (Green foxtail) turn out when `Cc1ccccc1-n1c(=O)on(C(=O)N(c2ccccc2)C(C)C)c1=O` [Compound 36] was run?
Its value is 100.

For `CCc1ccccc1-n1c(=O)on(C(=O)N(c2ccc(F)cc2)C(C)C)c1=O` [Compound 34], which “Plant response rating, Sourgrass” value (sourgrass; Rate 32 g/ha, 0 no injury, 100 complete control) is on record?
Its value is 98.

What about the “Sourgrass plant response rating” value (sourgrass; Rate 64 g/ha, 0 no injury, 100 complete control) of the same molecule?
Its value is 100.

What about the “Sourgrass plant response rating” value (sourgrass; Rate 125 g/ha, 0 no injury, 100 complete control) of the same molecule?
The value was 100.

And the “Plant response rating, Sourgrass” value (sourgrass; Rate 250 g/ha)?
Its value is 100.
